Source: patent US9422240B2, “Partially saturated nitrogen-containing heterocyclic compound” (TAISHO PHARMACEUTICAL CO., LTD, priority 2012, dated 2016)

Columns and labels:
[1] = molecular target: T1, human PHD2 (Homo sapiens (Human), UniProt Q9GZT9); assay: Test 1: human PHD2 inhibitory activity, [14C]-2-oxoglutarate to [14C]-succinic acid radiometric assay with HIF-1α peptide; assay type: biochemical; conditions: test compound's concentration 1 μM; Test 1, [14C]-2-oxoglutarate radiometric assay; read-out: Percent inhibition (% at 1 μM)
Summary of the method: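 Activity was measured by radiometric counting of [14C]-succinic acid formed during prolyl hydroxylation of a 19-mer HIF-1α peptide, after DNPH removal of residual [14C]-2-oxoglutarate. Baculovirus-expressed human PHD2 lysate (4 μg/well) reacted for 15 min at 37° C. Substrate-free and compound-free wells served as reference points for inhibition.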

[2] = molecular target: T1, human PHD2; assay: Test 2: human PHD2 inhibitory activity, fluorescence polarization assay of HIF-1α peptide proline hydroxylation; assay type: biochemical; conditions: for IC50: human PHD2, fluorescence polarization assay, 20-min incubation at 30° C.; for inhibition at 1 µM: test compound's concentration 1 μM, Test 2, fluorescence polarization assay, read-out: Percent inhibition (% at 1 μM)
Summary of the method: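 A 19-mer HIF-1α peptide served as substrate, with the reaction started by 40 ng/well human PHD2 (cell lysate of NM_022051-transfected cells) and run 20 min at 30° C. before EDTA stop. Hydroxylated product bound anti-HIF-OH antibody, read by fluorescence polarization versus no-compound control.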

T1 sequence (Q9GZT9 whole entry): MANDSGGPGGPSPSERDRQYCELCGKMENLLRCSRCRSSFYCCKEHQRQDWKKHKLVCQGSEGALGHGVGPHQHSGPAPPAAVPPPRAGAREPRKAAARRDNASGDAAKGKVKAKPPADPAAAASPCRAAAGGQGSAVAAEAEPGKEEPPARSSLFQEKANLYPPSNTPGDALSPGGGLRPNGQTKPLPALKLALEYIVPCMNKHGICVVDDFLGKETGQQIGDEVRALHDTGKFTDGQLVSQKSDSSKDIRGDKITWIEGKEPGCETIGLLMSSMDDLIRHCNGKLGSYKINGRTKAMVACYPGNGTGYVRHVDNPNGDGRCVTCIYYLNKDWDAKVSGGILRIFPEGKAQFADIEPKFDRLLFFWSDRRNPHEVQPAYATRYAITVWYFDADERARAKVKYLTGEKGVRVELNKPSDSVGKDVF

Row | inhibition at 1 µM [1] [%] | IC50 [2] [µM] | inhibition at 1 µM [2] [%] | Compound
1 | 101 | 0.066 | 91 | O=C(O)CNC(=O)C1=C(O)CCN(Cc2ccc(Oc3cccc(F)c3)nc2)C1=O [Ex. 1-256]
2 | 95 | 0.075 | 89 | Cc1cccc(Oc2ccc(CN3CCC(O)=C(C(=O)NCC(=O)O)C3=O)cc2)c1 [Ex. 1-257]
3 | 94 | 0.063 | 90 | O=C(O)CNC(=O)C1=C(O)CCN(Cc2ccc(Oc3cccc(F)c3)cc2)C1=O [Ex. 1-258]
4 | 92 | 0.096 | 91 | O=C(O)CNC(=O)C1=C(O)CCN(Cc2ccc(Oc3ccc(F)cc3)cn2)C1=O [Ex. 1-259]
5 | 99 |  | 97 | O=C(O)CNC(=O)C1=C(O)CCN(Cc2ccc(Sc3ccc(Cl)cc3)nc2)C1=O [Ex. 1-261]
6 | 88 |  | 87 | O=C(O)CNC(=O)C1=C(O)CCN(Cc2ccc(OC3CCC3)cc2)C1=O [Ex. 1-262]
7 | 81 |  | 83 | Cc1ccccc1-n1ncc(CN2CCC(O)=C(C(=O)NCC(=O)O)C2=O)c1C [Ex. 1-263]
8 | 98 | 0.024 | 100 | O=C(O)CNC(=O)C1=C(O)CCN(Cc2ccc(Oc3ccc(Cl)cc3)cc2)C1=O [Ex. 1-265]
9 | 83 |  | 89 | O=C(O)CNC(=O)C1=C(O)CC2(CC2)N(Cc2ccc(C3CC3)cc2)C1=O [Ex. 1-266]
10 | 81 |  | 86 | O=C(O)CNC(=O)C1=C(O)CC2(CCC2)N(Cc2ccc(OCC3CC3)cc2)C1=O [Ex. 1-267]
11 | 78 |  | 85 | Cc1c(CN2CCC(O)=C(C(=O)NCC(=O)O)C2=O)cnn1-c1ccccc1 [Ex. 1-268]
12 | 85 |  | 89 | O=C(O)CNC(=O)C1=C(O)CCN(Cc2ccc3c(c2)CCC3)C1=O [Ex. 1-269]
13 | 88 |  | 90 | O=C(O)CNC(=O)C1=C(O)CCN(Cc2ccc3sccc3c2)C1=O [Ex. 1-270]
14 | 91 |  | 91 | O=C(O)CNC(=O)C1=C(O)CCN(Cc2ccc(OC3CCCC3)cc2)C1=O [Ex. 1-271]
15 | 65 |  | 82 | CC1(C)CC(O)=C(C(=O)NCC(=O)O)C(=O)N1Cc1ccc(OC2CCCC2)cc1 [Ex. 1-272]
16 | 99 | 0.112 | 92 | Cc1ccc(Oc2ccc(CN3CCC(O)=C(C(=O)NCC(=O)O)C3=O)cc2)cn1 [Ex. 1-273]
17 | 92 | 0.108 | 94 | O=C(O)CNC(=O)C1=C(O)CCN(Cc2ccc(Oc3ccccc3F)nc2)C1=O [Ex. 1-274]
18 | 85 | 0.099 | 94 | Cc1ccccc1Oc1ccc(CN2CCC(O)=C(C(=O)NCC(=O)O)C2=O)cn1 [Ex. 1-275]
19 | 93 |  | 92 | Cc1ccc(Oc2ccc(CN3CC(C)(C)C(O)=C(C(=O)NCC(=O)O)C3=O)cn2)cc1 [Ex. 1-276]

Row | inhibition at 1 µM [1] [%] | IC50 [2] [µM] | inhibition at 1 µM [2] [%] | Compound
20 | 108 |  | 97 | Cc1ccc(Oc2ccc(CN3CC4(CC4)C(O)=C(C(=O)NCC(=O)O)C3=O)cn2)cc1 [Ex. 1-277]
21 | 93 |  | 94 | Cc1ccc(Oc2ccc(CN3CC4(CCC4)C(O)=C(C(=O)NCC(=O)O)C3=O)cn2)cc1 [Ex. 1-278]
22 | 90 |  | 91 | O=C(O)CNC(=O)C1=C(O)C2(CC2)CN(Cc2ccc(OCC3CC3)cc2)C1=O [Ex. 1-279]
23 | 109 |  | 98 | Cc1ccc(Oc2ccc(CN3C(=O)C(C(=O)NCC(=O)O)=C(O)CC34CCC4)cn2)cc1 [Ex. 1-280]
24 | 70 |  | 77 | CC1(C)CC(O)=C(C(=O)NCC(=O)O)C(=O)N1Cc1csc(-c2ccccc2)n1 [Ex. 1-281]
25 | 101 | 0.077 | 99 | O=C(O)CNC(=O)C1=C(O)CCN(Cc2ccc(Oc3ccccc3F)cc2)C1=O [Ex. 1-282]
26 | 99 | 0.063 | 97 | Cc1ccccc1Oc1ccc(CN2CCC(O)=C(C(=O)NCC(=O)O)C2=O)cc1 [Ex. 1-283]
27 | 107 | 0.04 | 103 | O=C(O)CNC(=O)C1=C(O)CCN(Cc2ccc(Oc3cccc(Cl)c3)nc2)C1=O [Ex. 1-284]
28 | 106 | 0.043 | 100 | O=C(O)CNC(=O)C1=C(O)CCN(Cc2ccc(Oc3cccc(C(F)(F)F)c3)nc2)C1=O [Ex. 1-285]
29 | 95 | 0.061 | 96 | COc1cccc(Oc2ccc(CN3CCC(O)=C(C(=O)NCC(=O)O)C3=O)cc2)c1 [Ex. 1-286]
30 | 94 | 0.045 | 104 | O=C(O)CNC(=O)C1=C(O)CCN(Cc2ccc(Oc3cccc(OC(F)(F)F)c3)nc2)C1=O [Ex. 1-287]
31 | 90 | 0.146 | 91 | O=C(O)CNC(=O)C1=C(O)CCN(Cc2ccc(Oc3ccc(F)cn3)cc2)C1=O [Ex. 1-288]
32 | 95 | 0.068 | 98 | O=C(O)CNC(=O)C1=C(O)CCN(Cc2ccc(Oc3ccc(Cl)cn3)cc2)C1=O [Ex. 1-289]
33 | 63 |  | 86 | O=C(O)CNC(=O)C1=C(O)CCN(Cc2ccccc2Oc2ccc(F)cc2)C1=O [Ex. 1-290]
34 | 75 |  | 86 | O=C(O)CNC(=O)C1=C(O)CCN(Cc2ccc(OCC(F)(F)F)cc2)C1=O [Ex. 1-291]
35 | 83 |  | 86 | O=C(O)CNC(=O)C1=C(O)CCN(Cc2ccc(OCC(F)(F)F)c(F)c2)C1=O [Ex. 1-292]
36 | 35 |  | 33 | CC1(C)CC(O)=C(C(=O)NCC(=O)O)C(=O)N1Cc1cnc(-c2ccccc2)[nH]1 [Ex. 1-293]
37 | 51 |  | 68 | CC1(C)CC(O)=C(C(=O)NCC(=O)O)C(=O)N1Cc1nc(-c2ccccc2)cs1 [Ex. 1-294]
38 | 63 |  | 74 | CC1(C)CC(O)=C(C(=O)NCC(=O)O)C(=O)N1Cc1coc(-c2ccccc2)n1 [Ex. 1-295]

Row | inhibition at 1 µM [1] [%] | IC50 [2] [µM] | inhibition at 1 µM [2] [%] | Compound
39 | 100 | 0.015 | 102 | O=C(O)CNC(=O)C1=C(O)CCN(Cc2ccc(Oc3ccc(C4CC4)cc3)nc2)C1=O [Ex. 1-296]
40 | 86 | 0.089 | 94 | Cc1ccc(Oc2ccc(CN3CCC(O)=C(C(=O)NCC(=O)O)C3=O)cc2)nc1 [Ex. 1-297]
41 | 84 | 0.079 | 94 | O=C(O)CNC(=O)C1=C(O)CCN(Cc2ccc(Oc3ccc(C(F)(F)F)cn3)cc2)C1=O [Ex. 1-298]
42 | 47 |  | 64 | Cn1nc(-c2ccccc2)cc1CN1C(=O)C(C(=O)NCC(=O)O)=C(O)CC1(C)C [Ex. 1-299]
43 | 30 |  | 43 | Cn1nc(CN2C(=O)C(C(=O)NCC(=O)O)=C(O)CC2(C)C)cc1-c1ccccc1 [Ex. 1-300]
44 | 56 |  | 75 | Cc1nc(-c2ccccc2)oc1CN1C(=O)C(C(=O)NCC(=O)O)=C(O)CC1(C)C [Ex. 1-301]
45 | 61 |  | 79 | CC1(C)CN(Cc2ccc(OCC3CC3)cc2)C(=O)C(C(=O)NCC(=O)O)=C1O [Ex. 1-302]
46 | 102 |  | 100 | Cc1ccc(Oc2ccc(CN3C(=O)C(C(=O)NCC(=O)O)=C(O)CC34CC4)cn2)cc1 [Ex. 1-303]
47 | 35 |  | 72 | CC1(C)CN(Cc2ccc(OC(F)(F)F)c(Cl)c2)C(=O)C(C(=O)NCC(=O)O)=C1O [Ex. 1-304]
48 | 94 |  | 97 | Cc1ccc(COc2ccc(CN3CCC(O)=C(C(=O)NCC(=O)O)C3=O)cc2)cc1 [Ex. 1-305]
49 | 94 |  | 99 | O=C(O)CNC(=O)C1=C(O)CCN(Cc2ccc(OCc3cccc(Cl)c3)cc2)C1=O [Ex. 1-306]
50 | 51 |  | 60 | O=C(O)CNC(=O)C1=C(O)CCN(C2CCCCC2)C1=O [Ex. 1-307]
51 | 93 |  | 88 | Cc1ccc(-c2ccc(CN3CCC(O)=C(C(=O)NCC(=O)O)C3=O)cc2)cc1 [Ex. 2-1, N-({4-Hydroxy-1-[(4′-methylbiphenyl-4-yl)methyl]-2-oxo-1,2,5,6-tetrahydropyridin-3-yl}carbonyl)glycine]
52 | 68 |  | 80 | Cn1cc(-c2ccc(CN3CCC(O)=C(C(=O)NCC(=O)O)C3=O)cc2)cn1 [Ex. 2-6]
53 | 88 |  | 91 | O=C(O)CNC(=O)C1=C(O)CCN(Cc2ccc(-c3cccnc3)cc2)C1=O [Ex. 2-7]
54 | 87 |  | 88 | O=C(O)CNC(=O)C1=C(O)CCN(Cc2ccc(-c3cnoc3)cc2)C1=O [Ex. 2-8]
55 | 78 |  | 82 | CC(C)c1cccc(-c2ccc(CN3CCC(O)=C(C(=O)NCC(=O)O)C3=O)cc2)c1 [Ex. 2-9]
56 | 84 |  | 79 | O=C(O)CNC(=O)C1=C(O)CCN(Cc2ccc(-c3ccc(-c4ccccc4)cc3)cc2)C1=O [Ex. 2-10]
